Test: wn = mass fraction of the nth substance listed
Details: 101 kPa, Liquid; for viscosity: Capillary tube (Ostwald / Ubbelohde) method; for mass density: Pycnometric method

O=[N+]([O-])[O-].[Li+] [lithium nitrate] + O
Details	mass density [kg/m3]	viscosity [mPa·s]
283.15 K, w1 = 0.3	1203	2.41
293.15 K, w1 = 0.3	1199	1.902
293.15 K, w1 = 0.35	1236	2.241
293.15 K, w1 = 0.4	1274	2.791
303.15 K, w1 = 0.3	1193	1.535
303.15 K, w1 = 0.35	1231	1.85
303.15 K, w1 = 0.4	1269	2.24
303.15 K, w1 = 0.45	1314	2.87
303.15 K, w1 = 0.5	1358	3.839
303.15 K, w1 = 0.55	1405	5.357
313.15 K, w1 = 0.3	1188	1.3
313.15 K, w1 = 0.35	1225	1.552
313.15 K, w1 = 0.4	1263	1.888
313.15 K, w1 = 0.45	1307	2.363
313.15 K, w1 = 0.5	1352	3.114
313.15 K, w1 = 0.55	1398	4.299
313.15 K, w1 = 0.6	1449	6.274
323.15 K, w1 = 0.3	1179	1.112
323.15 K, w1 = 0.35	1216	1.306
323.15 K, w1 = 0.4	1257	1.58
323.15 K, w1 = 0.45	1300	1.994
323.15 K, w1 = 0.5	1346	2.543
323.15 K, w1 = 0.55	1391	3.515
323.15 K, w1 = 0.6	1440	4.961
333.15 K, w1 = 0.3	1173	0.95
333.15 K, w1 = 0.35	1210	1.134
333.15 K, w1 = 0.4	1250	1.356
333.15 K, w1 = 0.45	1293	1.7
333.15 K, w1 = 0.5	1339	2.143
333.15 K, w1 = 0.55	1384	2.926
333.15 K, w1 = 0.6	1432	4.153
333.15 K, w1 = 0.65	1494	5.721
343.15 K, w1 = 0.3	1166	0.826
343.15 K, w1 = 0.35	1203	0.985
343.15 K, w1 = 0.4	1243	1.182
343.15 K, w1 = 0.45	1286	1.479
343.15 K, w1 = 0.5	1331	1.854
343.15 K, w1 = 0.55	1376	2.493
343.15 K, w1 = 0.6	1424	3.472
343.15 K, w1 = 0.65	1486	4.764
353.15 K, w1 = 0.3	1159	0.731
353.15 K, w1 = 0.35	1196	0.864
353.15 K, w1 = 0.4	1236	1.041
353.15 K, w1 = 0.45	1279	1.302
353.15 K, w1 = 0.5	1324	1.616
353.15 K, w1 = 0.55	1369	2.158
353.15 K, w1 = 0.6	1416	2.955
353.15 K, w1 = 0.65	1479	4.02
363.15 K, w1 = 0.3	1152	0.65
363.15 K, w1 = 0.35	1189	0.773
363.15 K, w1 = 0.4	1230	0.927
363.15 K, w1 = 0.45	1272	1.149
363.15 K, w1 = 0.5	1317	1.466
363.15 K, w1 = 0.55	1361	1.882
363.15 K, w1 = 0.6	1408	2.564
363.15 K, w1 = 0.65	1472	3.394
373.15 K, w1 = 0.3	1144	0.586
373.15 K, w1 = 0.35	1181	0.7
373.15 K, w1 = 0.4	1222	0.837
373.15 K, w1 = 0.45	1265	1.034
373.15 K, w1 = 0.5	1309	1.306
373.15 K, w1 = 0.55	1353	1.693
373.15 K, w1 = 0.6	1400	2.248
373.15 K, w1 = 0.65	1464	2.953
383.15 K, w1 = 0.4	1213	0.763
383.15 K, w1 = 0.45	1258	0.938
383.15 K, w1 = 0.5	1301	1.175
383.15 K, w1 = 0.55	1346	1.505
383.15 K, w1 = 0.6	1393	1.993
383.15 K, w1 = 0.65	1456	2.615
393.15 K, w1 = 0.5	1294	–
393.15 K, w1 = 0.55	1338	1.371
393.15 K, w1 = 0.6	1385	1.785
393.15 K, w1 = 0.65	1448	2.307
403.15 K, w1 = 0.6	1377	1.625
403.15 K, w1 = 0.65	1440	2.095
413.15 K, w1 = 0.65	1430	1.923

Reference: the NIST ThermoML archive (doi:10.1021/je301084m)
